Experimental data: publication PMC7054317, “Mammalian ALKBH1 serves as an N^6-mA demethylase of unpairing DNA” (Cell Research, 2020)

Experiments:
[1] = molecular target: T1, ALKBH1 in full length (mouse) (Mus musculus, UniProt P0CB42); test: isothermal titration calorimetry; assay type: binding
T1 construct: full length, residues 1-389, N-terminal His-tag retained, E. coli BL21(DE3), modified pRSFDuet-1
T1 sequence (P0CB42 1-389): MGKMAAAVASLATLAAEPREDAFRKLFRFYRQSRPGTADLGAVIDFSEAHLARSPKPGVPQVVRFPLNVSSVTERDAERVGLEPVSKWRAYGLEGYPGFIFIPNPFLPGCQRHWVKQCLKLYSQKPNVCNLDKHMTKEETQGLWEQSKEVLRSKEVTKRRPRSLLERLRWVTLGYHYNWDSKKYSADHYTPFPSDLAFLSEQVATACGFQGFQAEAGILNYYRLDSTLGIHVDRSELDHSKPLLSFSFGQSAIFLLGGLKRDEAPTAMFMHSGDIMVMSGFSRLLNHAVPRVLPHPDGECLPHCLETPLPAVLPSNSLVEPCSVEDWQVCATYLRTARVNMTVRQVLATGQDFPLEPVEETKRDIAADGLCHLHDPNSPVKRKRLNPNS

ALKBH1_1–359 (mouse) = molecular target: T2, ALKBH1_1–359 (mouse) (Mus musculus, UniProt P0CB42); test: isothermal titration calorimetry; assay type: binding
T2 construct: gene Alkbh1; C-terminally truncated, residues 1-359, His-tag removed with PreScission protease, E. coli BL21(DE3); residues 20-358 modelled in the crystal
T2 sequence (P0CB42 1-359): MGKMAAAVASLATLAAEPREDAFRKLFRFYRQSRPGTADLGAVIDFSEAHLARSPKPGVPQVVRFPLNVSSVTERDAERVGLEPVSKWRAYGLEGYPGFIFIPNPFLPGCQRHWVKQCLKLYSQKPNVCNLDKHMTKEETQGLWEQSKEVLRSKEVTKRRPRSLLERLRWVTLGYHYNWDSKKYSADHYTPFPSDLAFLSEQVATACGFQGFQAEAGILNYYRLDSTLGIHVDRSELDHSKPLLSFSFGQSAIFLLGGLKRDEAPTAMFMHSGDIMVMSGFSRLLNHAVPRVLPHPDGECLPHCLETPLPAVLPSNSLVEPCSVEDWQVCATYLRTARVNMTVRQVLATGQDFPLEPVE

Kd [1]: 1800 nM
Kd (ALKBH1_1–359 (mouse)): 2500 nM
Structure (SMILES): O=C(O)CNC(=O)C(=O)O [NOG]
